Results on one substance are retold here after PMC11351612, “Heteronuclear Complexes with Promising Anticancer Activity against Colon Cancer” (Biomedicines, 2024).

What all share (format): cell-based, human
In test [1] the test system is Caco-2/TC7. As to the kind of experiment: Intracellular ROS generation (DCFH-DA). Conditions: IC50 concentration, monitored 3 h. The procedure:
Measurement of intracellular ROS generation. The production of ROS was measured in Caco-2/TC7 seeded at a 4000 cells/well concentration in a 96-well plate, as described above. After 24 h, the culture growth medium was removed and cells were washed with PBS 1× and incubated with 20 µM DCFH-DA (Sigma-Aldrich) (100 µL/well) at 37 °C for 45 min in the dark. Afterwards, cells were washed with PBS 1× and then incubated with the tested compounds at their IC50 concentration or with 500 µM of H2O2 for the positive control. The fluorescent emission of DCF was monitored at 530 nm right after the addition of the complexes for 3 h using a microplate reader (λex = 485 nm), measuring every 15 min. The temperature was maintained at 37 °C during the experiment.
It is important to study the effect caused by ROS production upon the treatment of cells with metallic complexes, as it could indicate TrxR (thioredoxin reductase) inhibition and induction of apoptosis. Thus, the production of hydrogen peroxide in Caco-2 cells upon treatment with IC50 concentrations of complexes 1 and 2 has been studied. The method based on the H2O2-sensitive fluorescent probe DCFH-DA (2′-7′dichlorofluorescin diacetate) has been used. […]

For test [2], the system named is Caco-2/PD7 cells. As to the kind of experiment: Annexin V/propidium iodide apoptosis assay, Caco-2/PD7. Conditions: Caco-2/PD7, IC50 concentration, 72 h; control 35.8%. On the procedure: (§1) Study of cell death. After the appropriate incubation, cells were collected and stained with annexin V-FTIC, according to the manufacturer’s instructions. A negative control was prepared, containing unreacted cells to define the basal level of apoptotic and necrotic or dead cells. After incubation, the cells were transferred to flow-cytometry tubes and washed twice with temperate phosphate-buffered saline (PBS), suspended in 100 μL annexin V binding buffer (10 mM Hepes/NaOH, pH 7.4, 140 mM NaCl, 2.5 mM CaCl2), then 5 μL of annexin V-FITC, and 5 μL of PI was added to each 100 μL of cell suspension. After incubation for 15 min at room temperature in the dark, 400 μL of 1× annexin binding buffer was added and analysed by flow cytometry within one hour. The signal intensity was measured using a FACSARIA BD and analysed using FASCDIVA BD.
(§2) This inhibition of apoptosis produces a fast growth and proliferation of cancerous cells. The population of early and late apoptotic cells increased to 35% after treatment with complex 1 in comparison with the vehicle-treated cells (12%). […] Additionally, the effect observed after treating the cells with a dosage equal to the IC50 concentration is time-dependent. […]

The subject of test [3] is Caco-2/TC7 cells. As to the kind of experiment: Annexin V/propidium iodide apoptosis assay, Caco-2/TC7. Conditions: Caco-2/TC7, IC50 concentration; vehicle 12%. On the procedure:
as §1, §2

Consider [Cu{Au(Spy)(PTA)}2]PF6 [compound 1], for which the “H2O2 / ROS formation (DCF fluorescence vs vehicle-treated cells)” value in test [1] is given as “more markedly”. For the same substance, in test [2], the “Apoptotic cells (early + late apoptosis)” value turned out to be 62.4%. The “Population of early and late apoptotic cells” value in test [3] is recorded as 35%.
